Among the data in patent US20240208940A1, “SMALL-MOLECULE INHIBITORS FOR BETA-CATENIN/BCELL LYMPHOMA 9 PROTEIN-PROTEIN INTERACTION” (H. LEE MOFFITT CANCER CENTER AND RESEARCH INSTITUTE, INC., priority 2021, published 2024) are Ki and IC50 values, retold here.

This experiment has as its target β-catenin/BCL9 PPI (Homo sapiens (Human), UniProt P35222). Nature of the experiment: AlphaScreen competitive inhibition assay of β-catenin/BCL9 PPI. It counts as binding. Conditions: mean ± standard deviation (n = 3); for Ki: derived from IC50, read-out: Ki ± SD. How it is done:
AlphaScreen Assays of β-Catenin and BCL9 Interaction. Experiments were performed in white opaque 384-well plates from PerkinElmer (Waltham, MA), and the samples were read on a Biotek Synergy 2 plate reader (Winooski, VT) with excitation at 680 nm and emission at 570 nm. The standard AlphaScreen protocol was used with a sensitivity setting of 200. All dilutions were made in 1× assay buffer containing 25 mM Hepes (pH 7.4), 100 mM NaCl, 0.01% Triton X-100 and 0.1% BSA to minimize nonspecific interactions. For the competitive inhibition assays of β-catenin/BCL9 PPI, the negative control (equivalent to 0% inhibition) refers to 5.0 nM biotinylated BCL9, 50 nM His6-tagged β-catenin, and 10 μg/mL donor and acceptor beads in a final volume of 25 μL assay buffer, but no tested inhibitor present. The positive control (equivalent to 100% inhibition) refers to 5.0 nM biotinylated BCL9 and 10 μg/mL donor and acceptor beads in a final volume of 25 μL assay buffer.
For the β-catenin/BCL9 assay, 5 nM biotinylated BCL9 and 50 nM His6-tagged β-catenin were incubated in assay buffer for 30 min. Different concentrations of the tested inhibitor were added and incubated in 20 μL assay buffer for another 1 h. All of the assay plates were covered and gently mixed on an orbital shaker. The donor and acceptor beads were then added to the plates to a final concentration of 10 μg/mL in 25 μL assay buffer. The mixture was incubated for 1 h before detection. The IC50 value was determined by nonlinear least-square analysis of GraphPad Prism 8.0. The Ki values were derived from the IC50 values using a method reported by Wang and coworkers.^65 The equation used is Ki=[I]50/([L]50/Kd+[P]0/Kd+1) (Where [I]50 denotes the concentration of the free inhibitor at 50% inhibition, [L]50 is the concentration of the free labeled ligand at 50% inhibition, [P]0 is the concentration of the free protein at 0% inhibition, and Kd is the dissociation constant of the protein-ligand complex). All of the experiments were performed in triplicate and carried out in the presence of 1% DMSO for small-molecule inhibitors. Each compound was assayed at least by three independent experiments. The results were expressed as mean±standard deviation.
(Bead proximity is the source of the signal in Alpha formats.)

Counter-ions that a name gives are not always drawn.

Chain of β-catenin/BCL9 PPI (P35222 whole entry): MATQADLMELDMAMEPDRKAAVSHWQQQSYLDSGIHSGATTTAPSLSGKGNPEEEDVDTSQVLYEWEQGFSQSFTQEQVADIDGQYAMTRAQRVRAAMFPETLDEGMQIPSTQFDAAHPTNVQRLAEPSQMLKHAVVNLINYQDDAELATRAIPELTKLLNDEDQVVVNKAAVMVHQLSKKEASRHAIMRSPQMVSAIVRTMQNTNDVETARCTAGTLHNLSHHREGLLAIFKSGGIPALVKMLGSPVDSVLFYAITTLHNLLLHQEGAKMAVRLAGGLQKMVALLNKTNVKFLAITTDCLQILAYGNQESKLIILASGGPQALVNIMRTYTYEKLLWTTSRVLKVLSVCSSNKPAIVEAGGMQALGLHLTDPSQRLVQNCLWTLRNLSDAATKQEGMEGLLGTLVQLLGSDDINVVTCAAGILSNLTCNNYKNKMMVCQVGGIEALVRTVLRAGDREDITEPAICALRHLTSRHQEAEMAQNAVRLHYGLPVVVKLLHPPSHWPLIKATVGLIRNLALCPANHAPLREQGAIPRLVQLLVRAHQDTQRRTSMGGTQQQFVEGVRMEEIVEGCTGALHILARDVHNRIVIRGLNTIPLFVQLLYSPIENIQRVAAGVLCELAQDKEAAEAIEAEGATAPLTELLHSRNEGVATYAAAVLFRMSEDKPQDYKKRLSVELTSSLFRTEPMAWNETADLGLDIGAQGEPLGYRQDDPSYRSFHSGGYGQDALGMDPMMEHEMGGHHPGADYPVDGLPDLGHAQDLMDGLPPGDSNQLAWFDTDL

Consider `O=C(c1ccc(O[C@H]2CCNC2)c(C2CCC(C(F)(F)F)CC2)c1)N1CCC(Oc2cc(F)cc(N3CCNCC3)c2)CC1` (stereo in doubt) [Compound 18, cis- and trans-(S)-(4-(3-fluoro-5-(piperazin-1-yl)phenoxy)piperidin-1-yl)(4-(pyrrolidin-3-yloxy)-3-(4-(trifluoromethyl)cyclohexyl)phenyl)methanone dihydrochloride], for which the Ki is not above 20 µM and the IC50 is not above 20 µM.

As for `CC(C)(C)C1CCC(c2cc(C(=O)N3CCC(Oc4cc(F)cc(N5CCNCC5)c4)CC3)ccc2O[C@H]2CCNC2)CC1` (stereo in doubt) [Compound 19, cis- and trans-(S)-(3-(4-(tert-butyl)cyclohexyl)-4-(pyrrolidin-3-yloxy)phenyl)(4-(3-fluoro-5-(piperazin-1-yl)phenoxy)piperidin-1-yl)methanone dihydrochloride], the inhibitory constant (Ki) is not above 5 µM and the IC50 is not above 5 µM.

In the case of `CC(C)(C)C1CCC(c2cc(C(=O)N3CCC(Oc4cc(Cl)cc(N5CCNCC5)c4)CC3)ccc2O[C@H]2CCNC2)CC1` (stereo in doubt) [Compound 30, cis- and trans-(S)-(3-(4-(tert-butyl)cyclohexyl)-4-(pyrrolidin-3-yloxy)phenyl)(4-(3-chloro-5-(piperazin-1-yl)phenoxy)piperidin-1-yl)methanone dihydrochloride], the Ki was not above 5 µM and the IC50 is not above 5 µM.

Turning to `CC(C)(C)C1CCC(c2cc(C(=O)N3CCC(Oc4cc(N5CCNCC5)cc(C(F)(F)F)c4)CC3)ccc2O[C@H]2CCNC2)CC1` (stereo in doubt) [Compound 31, cis- and trans-(S)-(3-(4-(tert-butyl)cyclohexyl)-4-(pyrrolidin-3-yloxy)phenyl)(4-(3-(piperazin-1-yl)-5-(trifluoromethyl)phenoxy)piperidin-1-yl)methanone dihydrochloride], the Ki is less than 5 µM and the IC50 is not above 5 µM.

Take `CC(C)(C)C1CCC(c2cc(C(=O)N3CCC(Oc4cc(C#N)cc(N5CCNCC5)c4)CC3)ccc2O[C@H]2CCNC2)CC1` (stereo in doubt) [Compound 32, cis- and trans-(S)-3-((1-(3-(4-(tert-butyl)cyclohexyl)-4-(pyrrolidin-3-yloxy)benzoyl)piperidin-4-yl)oxy)-5-(piperazin-1-yl)benzonitrile dihydrochloride]: the Ki is not above 10 µM and the IC50 was not above 10 µM.

For `CC(C)(C)C1CCC(c2cc(C(=O)N3CCC(Oc4ccc(F)c(N5CCNCC5)c4)CC3)ccc2O[C@H]2CCNC2)CC1` (stereo in doubt) [Compound 33, cis- and trans-(S)-(3-(4-(tert-butyl)cyclohexyl)-4-(pyrrolidin-3-yloxy)phenyl)(4-(4-fluoro-3-(piperazin-1-yl)phenoxy)piperidin-1-yl)methanone dihydrochloride], the Ki is not above 10 µM and the IC50 was not above 10 µM.

Consider `CC(C)(C)C1CCC(c2cc(C(=O)N3CCC(Oc4cc(N5CCNCC5)ccc4F)CC3)ccc2O[C@H]2CCNC2)CC1` (stereo in doubt) [Compound 34, cis- and trans-(S)-(3-(4-(tert-butyl)cyclohexyl)-4-(pyrrolidin-3-yloxy)phenyl)(4-(2-fluoro-5-(piperazin-1-yl)phenoxy)piperidin-1-yl)methanone dihydrochloride], for which the inhibition constant (Ki) is not above 10 µM and the concentration for half-maximal inhibition (IC50) was not above 10 µM.

On to `CC(C)(C)C1CCC(c2cc(C(=O)N3CCC(Oc4cc(N5CCNCC5)cc(F)c4F)CC3)ccc2O[C@H]2CCNC2)CC1` (stereo in doubt) [Compound 35, cis- and trans-(S)-(3-(4-(tert-butyl)cyclohexyl)-4-(pyrrolidin-3-yloxy)phenyl)(4-(2,3-difluoro-5-(piperazin-1-yl)phenoxy)piperidin-1-yl)methanone dihydrochloride], for which the inhibition constant (Ki) was not above 5 µM and the IC50 is not above 5 µM.

In the case of `CC(C)(C)C1CCC(c2cc(C(=O)N3CCC(Oc4cc(N5CCNCC5)ccc4Cl)CC3)ccc2O[C@H]2CCNC2)CC1` (stereo in doubt) [Compound 36, cis- and trans-(S)-(3-(4-(tert-butyl)cyclohexyl)-4-(pyrrolidin-3-yloxy)phenyl)(4-(2-chloro-5-(piperazin-1-yl)phenoxy)piperidin-1-yl)methanone dihydrochloride], the inhibitory constant (Ki) is not above 5 µM and the IC50 is not above 5 µM.

In the case of `CC(C)(C)C1CCC(c2cc(C(=O)N3CCC(Oc4cc(N5CCNCC5)ccc4C#N)CC3)ccc2O[C@H]2CCNC2)CC1` (stereo in doubt) [Compound 37, cis- and trans-(S)-2-((1-(3-(4-(tert-butyl)cyclohexyl)-4-(pyrrolidin-3-yloxy)benzoyl)piperidin-4-yl)oxy)-4-(piperazin-1-yl)benzonitrile dihydrochloride], the Ki is not above 2 µM and the IC50 is not above 2 µM.

For `CC(C)(C)C1CCC(c2cc(C(=O)N3CCC(Oc4cccc(N5CCNCC5)c4)CC3)ccc2O[C@H]2CCNC2)CC1` (stereo in doubt) [Compound 38, cis and trans-(S)-(3-(4-(tert-butyl)cyclohexyl)-4-(pyrrolidin-3-yloxy)phenyl)(4-(3-(piperazin-1-yl)phenoxy)piperidin-1-yl)methanone dihydrochloride], the Ki is not above 20 µM and the IC50 is not above 20 µM.

Turning to `COC(=O)c1ccc(N2CCNCC2)cc1OC1CCN(C(=O)c2ccc(O[C@H]3CCNC3)c(C3CCC(C(C)(C)C)CC3)c2)CC1` (stereo in doubt) [Compound 39, cis- and trans-methyl (S)-2-((1-(3-(4-(tert-butyl)cyclohexyl)-4-(pyrrolidin-3-yloxy)benzoyl)piperidin-4-yl)oxy)-4-(piperazin-1-yl)benzoate dihydrochloride], the Ki was found to be 14 ± 0.87 µM and the concentration for half-maximal inhibition (IC50) came out at 17 ± 1.1 µM.

For the compound `CC(C)(C)C1CCC(c2cc(C(=O)N3CCC(Oc4cc(N5CCNCC5)ccc4C(=O)O)CC3)ccc2O[C@H]2CCNC2)CC1` (stereo in doubt) [Compound 40, cis- and trans-(S)-2-((1-(3-(4-(tert-butyl)cyclohexyl)-4-(pyrrolidin-3-yloxy)benzoyl)piperidin-4-yl)oxy)-4-(piperazin-1-yl)benzoic acid dihydrochloride], the Ki was approximately 84 µM and the IC50 was approximately 100 µM.

Regarding `CC(C)(C)C1CCC(c2cc(C(=O)N3CCC(Oc4cc(N5CCNCC5)ccc4C(N)=O)CC3)ccc2O[C@H]2CCNC2)CC1` (stereo in doubt) [Compound 41, cis- and trans-(S)-2-((1-(3-(4-(tert-butyl)cyclohexyl)-4-(pyrrolidin-3-yloxy)benzoyl)piperidin-4-yl)oxy)-4-(piperazin-1-yl)benzamide dihydrochloride], the Ki was not above 20 µM and the IC50 is not above 20 µM.

As to `CNC(=O)c1ccc(N2CCNCC2)cc1OC1CCN(C(=O)c2ccc(O[C@H]3CCNC3)c(C3CCC(C(C)(C)C)CC3)c2)CC1` (stereo in doubt) [Compound 42, cis- and trans-(S)-2-((1-(3-(4-(tert-butyl)cyclohexyl)-4-(pyrrolidin-3-yloxy)benzoyl)piperidin-4-yl)oxy)-N-methyl-4-(piperazin-1-yl)benzamide dihydrochloride], the Ki was not above 50 µM and the IC50 is not above 50 µM.

On to `CN(C)C(=O)c1ccc(N2CCNCC2)cc1OC1CCN(C(=O)c2ccc(O[C@H]3CCNC3)c(C3CCC(C(C)(C)C)CC3)c2)CC1` (stereo in doubt) [Compound 43, cis- and trans-(S)-2-((1-(3-(4-(tert-butyl)cyclohexyl)-4-(pyrrolidin-3-yloxy)benzoyl)piperidin-4-yl)oxy)-N,N-dimethyl-4-(piperazin-1-yl)benzamide dihydrochloride], for which the Ki was approximately 81 µM and the IC50 was approximately 100 µM.

Turning to `O=C(c1ccc(O[C@H]2CCNC2)c(C2CCCCC2)c1)N1CCC(Oc2cc(F)cc(N3CCNCC3)c2)CC1` [Compound 1, (S)-(3-cyclohexyl-4-(pyrrolidin-3-yloxy)phenyl)(4-(3-fluoro-5-(piperazin-1-yl)phenoxy)piperidin-1-yl)methanone dihydrochloride], the Ki was not above 50 µM and the IC50 was not above 60 µM.

`O=C(c1ccc(O[C@H]2CCNC2)c(C2CCCCC2)c1)N1CCC(Oc2cc(F)cc(N3CC4(CCNCC4)C3)c2)CC1` [Compound 2, (S)-(3-cyclohexyl-4-(pyrrolidin-3-yloxy)phenyl)(4-(3-fluoro-5-(2,7-diazaspiro[3.5]nonan-2-yl)phenoxy)piperidin-1-yl)methanone ditrifluoroacetic acid]: the Ki was more than 84 µM and the IC50 was more than 100 µM.

What is called Ki is the dissociation constant of the complex between target and ligand, obtained from inhibition or displacement. Broadly, the IC50 is the point on the concentration scale where inhibition reaches its midpoint.
